Experimental data taken from patent US20070009444A1, “Method for preparing powder exhibiting low susceptibility to electrification” (priority 2003, published 2007).

Key:
Type in all cases: physicochemical
[1] = Observation of spray dried powder (transit performance, coloring, operability)
Procedure: Acetaminophen and PEG4000 were mixed at the following ratio: acetaminophen-PEG4000=2.8 g-701 mg (Mixed ratio 4:1, PEG adding ratio 0.25 (weight of PEG (mg) relative to 1 mg of pharmaceutical active compound)), acetaminophen-PEG4000=2.8 g-351 mg (Mixed ratio 8:1, PEG adding ratio 0.125), acetaminophen-PEG4000=2.8 g-176 mg (Mixed ratio 16:1, PEG adding ratio 0.06), and acetaminophen-PEG4000=14 g-437 mg (Mixed ratio 32:1, PEG adding ratio 0.03). The final concentration of acetaminophen was adjusted to 1.4% by weight by adding suitable amount of water and the solution was spray dried under the conditions mentioned below.
FIG. 1 is a photograph of the acetaminophen powder (PEG adding ratio 0.03) and FIG. 2 is a photograph of the acetaminophen powder(without adding PEG). • Spray drying condition • Spray dryer: Spray dryer SD-1000 (Tokyo Rikakikai Co., Ltd.) • Speed of pump: scale 30 (about 6 mL/min) • IN-let temperature: 170° C. • Out-let temperature: 95 to 100° C. • Drying air volume: 0.60 m^3/min • Spray drying pressure: 70 kPa
Compound (I-1) powder was manufactured by a similar manner to Example 2 except that PEG400 (111 mg) (PEG adding ratio 0.37) was used instead of PEG4000 and the final concentration of Compound (I-1) in the solution was adjusted to 19% by weight. […]

[2] = Measurement of charge amount (Espartoanalyzer, sample mixed with iron powder 1:9, 500 V); details: for Average of charge: average of two measurements
Source text: In the present specification, the term “lowly-charged powder” means powder in which negative charge of surface potential is reduced (powder unsusceptible to negative charge) and encompasses positively charged powder. Concretely, it means powder having an average electric charge, measured with a particle charge distribution measuring device (for example, particle charge distribution measuring device using Laser Doppler speed meter), of not less than −2 q/m (namely, electric charge is negative and its absolute value is not more than 2, or electric charge is zero or positive value), preferably of not less than −1 q/m. The average electric charge is preferably not more than +5, more preferably not more than +3, and most preferably not more than +1. Measurement of electric charge may be conducted according to a manual of the device, and a condition and a measuring device are not particularly limited. For instance, after mixing a compound to be measured and iron powder in a ratio of about 1:9, about 1 g of mixture is collected. […]
400 mg of the acetaminophen powder containing PEG4000 (Acetaminophen:PEG=32:1, PEG adding ratio 0.03) obtained in Example 1 and 3600 mg of iron powder (TEFV-200/300 (registered trademark, Powdertech) as a carrier were filled into a glass vessel, and the mixture was mixed by hands for ten seconds. About 1 g of thus-obtained sample (true density of the particles: 1.20 g/cm^3) were collected and the charge amount was measured using Espartoanalyzer (Hosokawa Micron company). […]
Charge amount of the acetaminophen powder (without adding PEG) was measured by the same method as described above as a control (numbers of particles: 500).
Charge amount of each sample was measured twice and the average of the results are shown below.
Charge amount of the following samples were measured by the same method as Experiment 1. • i) 300 mg of Compound (I-1) […]

[3] = Measurement of bulk density (3 cc vessel, tapped three times)
Source text: As an index for charge suppression of the obtained powder, bulk. density of the powder may be examined rather than measuring surface potential of the powder. […] When the bulk density is not less than 0.25 g/cc, preferably 0.28 g/cc, suction by a machine and transfer from a filling machine to a filling vessel may be conducted favorably, and a certain operability must be secured. The bulk density is a value determined in the manner as described below. First, 3 cc of sample to be measured is put into a vessel, and then the vessel is lightly tapped several to 10 times, preferably about 3 times. When the bulk is reduced, powder is supplemented, and this operation is repeated. At the time when the bulk no longer changes, a sample weight per 1 cc is determined. The bulk density of lowly-charged powder determined in the method of the present invention is 1.5 times or more, preferably 1.6 times or more, and further preferably 1.8 times or more the “bulk density of highly-charged compound”, “bulk density of powder obtained by drying a liquid composition containing a highly-charged compound and an additive other than PEG” or “bulk density of powder obtained by drying a liquid composition containing a pharmaceutically active compound”.
The bulk density of the acetaminophen powder containing PEG4000 (PEG adding ratio 0.03) obtained in Example 1 and the Compound (I-1) powder containing PEG4000 obtained in Example 2 were measured.
The powder was added to a vessel to reach the scale of 3 cc in a dry box and tapped three times. When the bulk is reduced, powder is added to the vessel to reach the scale of 3 cc and the same operation was repeated.
When the bulk no longer changed at 3 cc, addition of the powder was stopped and the bulk density (g/cc) was measured at that time.
Bulk densities of the acetaminophen powder (without adding PEG) and the Compound (I-1) powder (without adding PEG) were measured by the same method as controls.

[4] = Particle diameter by dry powder tester (SK Laser micron sizer LMS-30); details: no PEG, with D-mannitol and NaOH, spray dried
Procedure: The method of measuring “average particle size” used herein is not particularly limited, and measurement may be conducted in accordance with a manual of the particle size meter to be used. For example, about 20 to 30 mg of powder to be measured for its diameter is taken, and placed in the particle size meter for conducting measurement.
(§1) 300 mg of Compound (I-l) and 150 mg of D-mannitol were mixed with suitable amount of sodium hydroxide. The solutions having various concentration (pH 9.5 to 9.75) were prepared. Thus-obtained solutions were spray dried under the same conditions as Example 1. The dissolution time of the obtained powder was measured by the same method as the above-mentioned Experiment 3. The particle diameter was measured under the following conditions. • Measuring condition of dry powder tester • Dry powder tester: SK Laser micron sizer LMS-30 (SEISHIN ENTERPRISE Co., Ltd.) • Carrier fluid: compressed air […] • Sample: about 20 to 30 mg

[5] = Measurement of dissolution time (powder in 10 ml distilled water for injection, vial shaken)
Procedure: The dissolving time is determined by shaking a vessel containing 300 mg of sample to be measured and 10 mL of water. In the case of pharmaceuticals, the sample to be measured should contain 300 mg of pharmaceutically active compound, and may contain a pharmaceutical additive. The shaking manner and time are not particularly limited. Concretely, measurement may be conducted according to the method described in Test example 3 described later.
The Compound (I-1) powder containing PEG (about 300 mg) which was obtained in Example 2 or 3 was filled in a vial (the capacity to the shoulder is 20 ml). After 10 ml of distilled water for injection was added to the vial, the vial was shaken 20 times (arm length: about 20 centimeters, the amplitude: […] and shaking speed: 20 times/ten seconds), and the dissolution time was measured.
as §1

Coloring of powder ([1]; spray dried solution containing only acetaminophen, without adding PEG (control))	Coloring of powder ([1]; spray dried with PEG4000, PEG adding ratio 0.25, 0.125, 0.06, 0.03 (all samples))	Average of charge ([2]; acetaminophen powder spray dried with PEG4000, PEG adding ratio 0.03) [q/m]	Average of charge ([2]; acetaminophen powder without adding PEG, ratio 0) [q/m]	Bulk density ([3]; solution 1.4% by weight, PEG4000, PEG adding ratio 0.03, spray dried) [g/cc]	Bulk density ([3]; solution 1.4% by weight, without adding PEG, spray dried) [g/cc]	Compound	Particle diameter ([4]; solution 5% by weight (pH 9.5)) [μm]	Particle diameter ([4]; solution 10% by weight) [μm]	Particle diameter ([4]; solution 19% by weight (pH 9.75)) [μm]	Electric charge ([2]; Experiment 2; i) non-additive, 3000 particles; ii) PEG4000 + D-mannitol, PEG adding ratio 0.4, 505 particles) [q/m]	Bulk density ([3]; solution 18% by weight, PEG4000, PEG adding ratio 0.37, spray dried) [g/cc]	Bulk density ([3]; solution 18% by weight, without adding PEG, spray dried) [g/cc]	Dissolution time ([5]; no PEG, with D-mannitol and NaOH, solution 5% by weight (pH 9.5), spray dried) [s]	Dissolution time ([5]; no PEG, with D-mannitol and NaOH, solution 10% by weight, spray dried) [s]	Dissolution time ([5]; no PEG, with D-mannitol and NaOH, solution 19% by weight (pH 9.75), spray dried)	Dissolution time ([5]; solution before drying 5% by weight, PEG4000, PEG adding ratio 0.37) [s]	Dissolution time ([5]; solution before drying 5% by weight, non-additive, PEG adding ratio 0) [s]	Dissolution time ([5]; solution before drying 19% by weight, PEG400, PEG adding ratio 0.37) [s]
a little coloring	non-coloring	−1.43	−12.86	0.659	0.398	CC(=O)Nc1ccc(O)cc1 [Acetaminophen, acetaminophen]	–	–	–	–	–	–	–	–	–	–	–	–
–	–	–	–	–	–	CC1(C)CC[C@]2(C(=O)[O-])CC[C@]3(COC(=O)/C=C/c4cc(O)ccc4NC(=O)/C=C/C(=O)[O-])C(=CC[C@@H]4[C@@]5(C)CCC(=O)C(C)(C)[C@@H]5CC[C@]43C)[C@@H]2C1.[Na+].[Na+] [Compound (I-1)]	8.9	10.1	11.6	−2.57	0.395	0.206	40	10	under 20 second	10	40	10
